Each structure is given as a SMILES string.

The assay has as its target T1, human kinase Mps-1 (Homo sapiens, UniProt P33981).
T1 construct: N-terminally GST-tagged human full length recombinant Mps-1 kinase; GST (N); purchased Invitrogen, Karslruhe, Germany PV4071
T1 sequence (P33981 1-857): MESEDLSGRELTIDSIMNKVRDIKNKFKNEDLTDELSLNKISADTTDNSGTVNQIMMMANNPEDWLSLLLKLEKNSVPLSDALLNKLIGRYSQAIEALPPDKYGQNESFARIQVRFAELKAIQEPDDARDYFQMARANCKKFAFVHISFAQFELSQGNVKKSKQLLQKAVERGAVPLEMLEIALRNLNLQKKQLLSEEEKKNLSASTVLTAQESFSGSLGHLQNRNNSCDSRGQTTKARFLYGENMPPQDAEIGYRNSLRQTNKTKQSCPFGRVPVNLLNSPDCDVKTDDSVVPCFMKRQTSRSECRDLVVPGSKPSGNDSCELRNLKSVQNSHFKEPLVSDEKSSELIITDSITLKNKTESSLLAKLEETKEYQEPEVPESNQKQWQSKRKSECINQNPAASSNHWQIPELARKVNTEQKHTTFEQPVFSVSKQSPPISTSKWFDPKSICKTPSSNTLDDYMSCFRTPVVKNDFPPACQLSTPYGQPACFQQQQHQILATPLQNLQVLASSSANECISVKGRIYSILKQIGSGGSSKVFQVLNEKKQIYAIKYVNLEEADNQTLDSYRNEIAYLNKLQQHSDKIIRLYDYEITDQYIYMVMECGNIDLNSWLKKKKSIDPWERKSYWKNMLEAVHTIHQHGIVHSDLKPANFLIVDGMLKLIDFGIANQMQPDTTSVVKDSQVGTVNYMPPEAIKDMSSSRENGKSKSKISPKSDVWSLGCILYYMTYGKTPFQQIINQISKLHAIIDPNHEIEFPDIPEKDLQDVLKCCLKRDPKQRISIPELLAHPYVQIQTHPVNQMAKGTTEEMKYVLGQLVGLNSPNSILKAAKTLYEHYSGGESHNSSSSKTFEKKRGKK
In words: Mps-1 kinase assay (HTRF). The class given is biochemical. The protocol: The human kinase Mps-1 phosphorylates a biotinylated substrate peptide. Detection of the phosphorylated product is achieved by homogenous time-resolved fluorescence resonance energy transfer (HTRF) from Europium-labelled anti-phospho-Serine/Threonine antibody as donor to streptavidin labelled with cross-linked allophycocyanin (SA-XLent) as acceptor. Compounds are tested for their inhibition of the kinase activity.
N-terminally GST-tagged human full length recombinant Mps-1 kinase (purchased from Invitrogen, Karslruhe, Germany, cat. no PV4071) was used. As substrate for the kinase reaction a biotinylated peptide of the amino-acid sequence […] (C-terminus in amide form, purchased from Biosynthan GmbH, Berlin) was used.
The concentration of Mps-1 in the assay was adjusted to the activity of the enzyme lot and was chosen appropriate to have the assay in the linear range, typical enzyme concentrations were in the range of about 1 nM (final conc. in the 5 μl assay volume).
The resulting mixture was incubated 1 h at 22° C. to allow the binding of the phosphorylated peptide to the anti-phospho(Ser/Thr)-Europium-antibody. Subsequently the amount of phosphorylated substrate was evaluated by measurement of the resonance energy transfer from the Europium-labelled anti-phospho(Ser/Thr) antibody to the Streptavidin-XLent.
In general terms: TR-FRET usually uses a lanthanide donor and a delayed reading to cut background.
In the case of `COC(C)CNC(=O)c1cccc(-c2ccc3nc(Nc4ccccc4C#N)nn3c2)c1` (racemic) [Example 11.053, rac-3-{2-[(2-cyanophenyl)amino][1,2,4]triazolo[1,5-a]pyridin-6-yl}-N-(2-methoxypropyl)benzamide], the half-maximal inhibitory concentration (IC50) (as a rule, the concentration that inhibits the measured activity by half) was 6.72 nM.

Turning to `COc1cc(C#N)ccc1Nc1nc2ccc(-c3cc(C)c(O)c(C)c3)cn2n1` [Example 1.1, 4-{[6-(4-hydroxy-3,5-dimethylphenyl)[1,2,4]triazolo[1,5-a]pyridin-2-yl]amino}-3-methoxybenzonitrile], the IC50 came out at 17 nM.

`COc1ccc(Nc2nc3ccc(-c4cc(C)c(O)c(C)c4)cn3n2)c(OC)c1` [Example 1.2, 4-{2-[(2,4-dimethoxyphenyl)amino] [1,2,4]triazolo[1,5-a]pyridin-6-yl}-2,6-dimethylphenol] returned a half-maximal inhibitory concentration (IC50) of 180 nM.

`Cc1cc(-c2ccc3nc(Nc4cncnc4)nn3c2)cc(C)c1O` [Example 1.4, 2,6-dimethyl-4-[2-(pyrimidin-5-ylamino)[1,2,4]triazolo [1,5-a]pyridin-6-yl]phenol] displayed an IC50 of 2700 nM.

Compound `COc1ccc(F)cc1Nc1nc2ccc(-c3cc(C)c(O)c(C)c3)cn2n1` [Example 1.6, 4-{2-[(5-fluoro-2-methoxyphenyl)amino] [1,2,4]triazolo[1,5-a]pyridin-6-yl}-2,6-dimethylphenol] had an IC50 of 150 nM.

`Cc1cc(-c2ccc3nc(Nc4cccnc4)nn3c2)cc(C)c1O` [Example 1.8, 2,6-dimethyl-4-[2-(pyridin-3-ylamino)[1,2,4]triazolo [1,5-a]pyridin-6-yl]phenol] showed an IC50 of 320 nM.

On to `Cc1cc(-c2ccc3nc(Nc4ccccc4OC(F)(F)F)nn3c2)cc(C)c1O` [Example 1.10, 2,6-dimethyl-4-(2-{[2-(trifluoromethoxy)phenyl]amino}[1,2,4]tri-azolo[1,5-a]pyridin-6-yl)phenol], for which the IC50 is 140 nM.

For the compound `CCOc1ccccc1Nc1nc2ccc(-c3cc(C)c(O)c(C)c3)cn2n1` [Example 1.12, 4-{2-[(2-ethoxyphenyl)amino] [1,2,4]triazolo[1,5-a]pyridin-6-yl}-2,6-dimethylphenol], the IC50 amounted to 92 nM.

`COc1ccc(C#N)cc1Nc1nc2ccc(-c3cc(C)c(O)c(C)c3)cn2n1` [Example 1.13, 3-{[6-(4-hydroxy-3,5-dimethylphenyl)[1,2,4]triazolo[1,5-a]pyridin-2-yl]amino}-4-methoxybenzonitrile]: the IC50 stood at 640 nM.

`COc1cccnc1Nc1nc2ccc(-c3cc(C)c(O)c(C)c3)cn2n1` [Example 1.14, 4-{2-[(3-methoxypyridin-2-yl)amino][1,2,4]tri-azolo[1,5-a]pyridin-6-yl}-2,6-dimethylphenol] gave an IC50 of 160 nM.

For `CNC(=O)c1ccc(Nc2nc3ccc(-c4cc(C)c(O)c(C)c4)cn3n2)cc1` [Example 1.15, 4-{[6-(4-hydroxy-3,5-dimethylphenyl)[1,2,4]triazolo[1,5-a]pyridin-2-yl]amino}-N-methylbenzamide], the midpoint of inhibition, the IC50, lay at 23 nM.

Compound `CCN(CC)C(=O)c1ccc(Nc2nc3ccc(-c4cc(C)c(O)c(C)c4)cn3n2)c(OC)c1` [Example 1.16, N,N-Diethyl-4-[6-(4-hydroxy-3,5-dimethyl-phenyl)-[1,2,4]triazolo[1,5-a]pyridin-2-ylamino]-3-methoxy-benzamide] returned a half-maximal inhibitory concentration (IC50) of 280 nM.

Compound `COc1ccc(F)cc1Nc1nc2ccc(-c3cccc(NC(C)=O)c3)cn2n1` [Example 2.2, N-(3-{2-[(5-fluoro-2-methoxyphenyl)amino] [1,2,4]triazolo[1,5-a]pyridin-6-yl}phenyl)acetamide] showed an IC50 of 470 nM.

`CC(=O)Nc1cccc(-c2ccc3nc(Nc4cccnc4)nn3c2)c1` [Example 2.4, N-{3-[2-(pyridin-3-ylamino)[1,2,4]triazolo [1,5-a]pyridin-6-yl]phenyl}acetamide] showed an IC50 of 3100 nM.

In turn, `CC(=O)Nc1cccc(-c2ccc3nc(Nc4ccc(S(C)(=O)=O)cc4)nn3c2)c1` [Example 2.5, N-[3-(2-{[4-(methylsulfonyl)phen-yl]amino}[1,2,4]triazolo [1,5-a]pyridin-6-yl)phenyl]acetamide] registered an IC50 of 770 nM.

`CC(=O)Nc1cccc(-c2ccc3nc(Nc4ccccc4OC(F)(F)F)nn3c2)c1` [Example 2.6, N-[3-(2-{[2-(trifluoromethoxy)phenyl]amino}[1,2,4]tri-azolo[1,5-a]pyridin-6-yl)phenyl]acetamide]: the IC50 came to 340 nM.

In turn, `CC(=O)Nc1cccc(-c2ccc3nc(Nc4ccc(OC(F)(F)F)cc4)nn3c2)c1` [Example 2.7, N-[3-(2-{[4-(trifluoromethoxy)phenyl]amino}[1,2,4]tri-azolo[1,5-a]pyridin-6-yl)phenyl]acetamide] yielded an IC50 of 3300 nM.

With `CC(=O)Nc1cccc(-c2ccc3nc(Nc4ccc(C#N)cc4)nn3c2)c1` [Example 2.8, N-(3-{2-[(4-cyanophenyl)amino] [1,2,4]triazolo[1,5-a]pyridin-6-yl}phenyl)acetamide], the IC50 was determined as 1000 nM.

Turning to `CC(=O)Nc1cccc(-c2ccc3nc(Nc4ccc(C(C)C)cc4)nn3c2)c1` [Example 2.9, N-[3-(2-{[4-(propan-2-yl)phenyl]amino}[1,2,4]triazolo[1,5-a]pyridin-6-yl)phenyl]acetamide], the IC50 was found to be 1800 nM.

The compound `CCOc1ccccc1Nc1nc2ccc(-c3cccc(NC(C)=O)c3)cn2n1` [Example 2.10, N-(3-{2-[(2-ethoxyphenyl)amino] [1,2,4]triazolo[1,5-a]pyridin-6-yl}phenyl)acetamide] displayed an IC50 of 130 nM.

For `COc1cccnc1Nc1nc2ccc(-c3cccc(NC(C)=O)c3)cn2n1` [Example 2.11, N-(3-{2-[(3-methoxypyridin-2-yl)amino][1,2,4]triazolo [1,5-a]pyridin-6-yl}phenyl)acetamide], the IC50 was 3500 nM.

The compound `COc1cc(C#N)ccc1Nc1nc2ccc(-c3cccc(NC(C)=O)c3)cn2n1` [Example 2.12, N-(3-{2-[(4-cyano-2-methoxyphenyl)amino] [1,2,4]triazolo[1,5-a]pyridin-6-yl}phenyl)acetamide] came in with an IC50 of 200 nM.

`N#Cc1ccccc1Nc1nc2ccc(-c3ccccc3)cn2n1` [Example 3.1, 2-[(6-phenyl[1,2,4]triazolo[1,5-a]pyridin-2-yl)amino]benzonitrile] returned an IC50 of 860 nM.

Compound `N#Cc1ccccc1Nc1nc2ccc(-c3cccc(CO)c3)cn2n1` [Example 3.2, 2-({6-[3-(hydroxymethyl)phen-yl][1,2,4]triazolo[1,5-a]pyridin-2-yl}amino)benzonitrile] yielded an IC50 of 52 nM.

`Cc1cccc(-c2ccc3nc(Nc4ccccc4C#N)nn3c2)c1` [Example 3.3, 2-{[6-(3-methylphenyl)[1,2,4]triazolo[1,5-a]pyridin-2-yl]amino}benzonitrile] displayed an IC50 of 630 nM.

The compound `CC(=O)Nc1ccccc1-c1ccc2nc(Nc3ccccc3C#N)nn2c1` [Example 3.4, N-(2-{2-[(2-cyanophenyl)amino] [1,2,4]triazolo[1,5-a]pyridin-6-yl}phenyl)acetamide] displayed an IC50 of 6100 nM.

`CS(=O)(=O)Nc1cccc(-c2ccc3nc(Nc4ccccc4C#N)nn3c2)c1` [Example 3.5, N-(3-{2-[(2-cyanophenyl)amino] [1,2,4]triazolo[1,5-a]pyridin-6-yl}phenyl)methane-sulfonamide] showed an IC50 of 240 nM.

For the compound `N#Cc1ccccc1Nc1nc2ccc(-c3ccc4cc[nH]c4c3)cn2n1` [Example 3.6, 2-{[6-(1H-indol-6-yl)[1,2,4]triazolo[1,5-a]pyridin-2-yl]amino}benzonitrile], the IC50 is 940 nM.

Consider `N#Cc1ccccc1Nc1nc2ccc(-c3ccc(C(N)=O)cc3)cn2n1` [Example 3.7, 4-{2-[(2-cyanophenyl)amino] [1,2,4]triazolo[1,5-a]pyridin-6-yl}benzamide], for which half-maximal inhibition (IC50) required 140 nM.

`N#Cc1ccccc1Nc1nc2ccc(-c3cccc(C(N)=O)c3)cn2n1` [Example 3.8, 3-{2-[(2-cyanophenyl)amino] [1,2,4]triazolo[1,5-a]pyridin-6-yl}benzamide] returned an IC50 of 110 nM.

The record behind these values is patent US20130121994A1, “TRIAZOLOPYRIDINE DERIVATIVES” (BAYER INTELLECTUAL PROPERTY GMBH, priority 2009, published 2013).
